Experimental data published in patent US10670605B2, “Cysteine reactive probes and uses thereof” (The Scripps Research Institute, priority 2015, dated 2020).

How the values were obtained:
Assay in all cases: Competitive isoTOP-ABPP in situ (fragment-treated cells)
Format in all cases: cell-based
[1] = biological target: T1, cysteines in MDA-MB-231 and Ramos cells (Homo sapiens, UniProt P35754)
T1 sequence (P35754 1-106): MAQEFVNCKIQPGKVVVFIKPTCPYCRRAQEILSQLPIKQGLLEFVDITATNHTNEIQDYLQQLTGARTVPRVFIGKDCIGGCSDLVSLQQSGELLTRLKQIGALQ

[2] = biological target: cysteines in MDA-MB-231 and Ramos cells (Homo sapiens, UniProt P52948); conditions: 200 μM, insitu, 231
[3] = biological target: cysteines in MDA-MB-231 and Ramos cells (Homo sapiens, UniProt Q9UNI6); conditions: 200 μM, insitu, 231
[4] = biological target: cysteines in MDA-MB-231 and Ramos cells (Homo sapiens, UniProt Q14790); conditions: 200 μM, insitu
[5] = biological target: cysteines in MDA-MB-231 and Ramos cells (Homo sapiens, UniProt Q96N67); conditions: 200 μM, insitu, 231
[6] = biological target: cysteines in MDA-MB-231 and Ramos cells (Homo sapiens, UniProt P27707)
[7] = biological target: T2, cysteines in MDA-MB-231 and Ramos cells (Homo sapiens, UniProt O75717)
T2 sequence (O75717 1-1129): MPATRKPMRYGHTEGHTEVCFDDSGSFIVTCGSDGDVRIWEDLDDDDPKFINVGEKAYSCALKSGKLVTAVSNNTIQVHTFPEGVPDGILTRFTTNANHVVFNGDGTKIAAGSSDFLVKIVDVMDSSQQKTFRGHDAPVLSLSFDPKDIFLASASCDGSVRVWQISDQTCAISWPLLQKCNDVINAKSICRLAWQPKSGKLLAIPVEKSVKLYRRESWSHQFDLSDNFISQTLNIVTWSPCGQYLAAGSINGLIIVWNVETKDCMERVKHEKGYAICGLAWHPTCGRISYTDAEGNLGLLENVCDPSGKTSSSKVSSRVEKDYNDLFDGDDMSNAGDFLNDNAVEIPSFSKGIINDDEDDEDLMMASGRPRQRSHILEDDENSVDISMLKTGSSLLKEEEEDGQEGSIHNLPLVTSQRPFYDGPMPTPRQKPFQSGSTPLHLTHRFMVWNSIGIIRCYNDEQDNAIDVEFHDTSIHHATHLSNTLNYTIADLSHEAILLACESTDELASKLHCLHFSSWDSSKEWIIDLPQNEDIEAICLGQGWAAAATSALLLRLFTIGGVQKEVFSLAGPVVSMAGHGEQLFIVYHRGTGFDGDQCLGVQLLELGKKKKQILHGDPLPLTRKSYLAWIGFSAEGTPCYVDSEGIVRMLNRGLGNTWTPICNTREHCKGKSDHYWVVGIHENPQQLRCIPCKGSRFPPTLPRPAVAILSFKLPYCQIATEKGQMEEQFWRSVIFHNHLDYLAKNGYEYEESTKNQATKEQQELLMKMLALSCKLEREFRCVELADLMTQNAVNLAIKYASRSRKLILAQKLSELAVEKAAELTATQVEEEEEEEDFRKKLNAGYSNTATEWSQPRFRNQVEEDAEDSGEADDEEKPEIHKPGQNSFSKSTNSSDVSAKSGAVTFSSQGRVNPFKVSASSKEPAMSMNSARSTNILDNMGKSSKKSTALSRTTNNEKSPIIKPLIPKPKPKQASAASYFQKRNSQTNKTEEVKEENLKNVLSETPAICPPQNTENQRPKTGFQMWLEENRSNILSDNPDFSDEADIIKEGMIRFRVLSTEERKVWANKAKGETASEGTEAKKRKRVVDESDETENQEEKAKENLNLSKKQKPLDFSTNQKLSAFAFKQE

[8] = biological target: cysteines in MDA-MB-231 and Ramos cells (Homo sapiens, UniProt Q5MNZ6)
[9] = biological target: T3, cysteines in MDA-MB-231 and Ramos cells (Homo sapiens, UniProt Q9NTX5)
T3 sequence (Q9NTX5 1-307): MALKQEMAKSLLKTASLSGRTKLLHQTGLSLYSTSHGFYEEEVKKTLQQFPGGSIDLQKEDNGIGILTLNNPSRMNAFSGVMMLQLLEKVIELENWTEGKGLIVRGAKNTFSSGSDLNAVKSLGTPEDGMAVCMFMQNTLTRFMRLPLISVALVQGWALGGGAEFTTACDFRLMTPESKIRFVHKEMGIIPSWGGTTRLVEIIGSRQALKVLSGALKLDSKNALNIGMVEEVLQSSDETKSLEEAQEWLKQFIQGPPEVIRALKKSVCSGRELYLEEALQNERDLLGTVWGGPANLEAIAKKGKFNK

[10] = biological target: T4, cysteines in MDA-MB-231 and Ramos cells (Homo sapiens, UniProt Q5JPI3)
T4 sequence (Q5JPI3 1-329): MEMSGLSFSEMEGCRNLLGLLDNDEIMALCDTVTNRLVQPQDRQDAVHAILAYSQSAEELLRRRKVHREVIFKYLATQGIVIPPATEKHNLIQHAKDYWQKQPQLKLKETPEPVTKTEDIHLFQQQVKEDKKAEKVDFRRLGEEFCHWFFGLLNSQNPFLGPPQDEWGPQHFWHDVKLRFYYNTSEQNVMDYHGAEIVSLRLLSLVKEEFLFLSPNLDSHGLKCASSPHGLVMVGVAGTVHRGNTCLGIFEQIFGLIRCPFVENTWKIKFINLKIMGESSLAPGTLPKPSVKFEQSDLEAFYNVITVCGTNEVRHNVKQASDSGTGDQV

[11] = biological target: cysteines in MDA-MB-231 and Ramos cells (Homo sapiens, UniProt Q14137); conditions: 200 μM, insitu; for isoTOP-ABPP ratio, cysteine Q14137_C404: 231
cysteines in MDA-MB-231 and Ramos cells (Homo sapiens, UniProt Q14137), sequence (Q14137 whole entry): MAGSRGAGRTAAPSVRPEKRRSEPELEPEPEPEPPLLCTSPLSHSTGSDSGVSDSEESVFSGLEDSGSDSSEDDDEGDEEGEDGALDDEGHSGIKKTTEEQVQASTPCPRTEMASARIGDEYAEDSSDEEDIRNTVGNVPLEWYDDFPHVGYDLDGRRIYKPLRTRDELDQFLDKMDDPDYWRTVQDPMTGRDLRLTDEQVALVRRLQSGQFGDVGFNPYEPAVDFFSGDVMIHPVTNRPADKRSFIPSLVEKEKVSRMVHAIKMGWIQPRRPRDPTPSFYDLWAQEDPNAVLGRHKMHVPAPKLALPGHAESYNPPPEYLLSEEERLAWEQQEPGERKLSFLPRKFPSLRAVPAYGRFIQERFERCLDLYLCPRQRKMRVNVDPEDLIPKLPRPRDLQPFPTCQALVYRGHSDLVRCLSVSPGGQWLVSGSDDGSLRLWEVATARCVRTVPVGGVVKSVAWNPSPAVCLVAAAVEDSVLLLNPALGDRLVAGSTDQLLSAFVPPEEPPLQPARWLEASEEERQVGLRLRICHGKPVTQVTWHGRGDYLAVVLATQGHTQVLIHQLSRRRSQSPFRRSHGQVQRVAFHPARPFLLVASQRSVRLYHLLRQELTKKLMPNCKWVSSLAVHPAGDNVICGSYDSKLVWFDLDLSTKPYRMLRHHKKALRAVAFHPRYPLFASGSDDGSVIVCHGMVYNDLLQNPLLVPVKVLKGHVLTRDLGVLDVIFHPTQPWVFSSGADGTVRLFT

cysteines in MDA-MB-231 and Ramos cells (Homo sapiens, UniProt Q14790), sequence (Q14790 217-479): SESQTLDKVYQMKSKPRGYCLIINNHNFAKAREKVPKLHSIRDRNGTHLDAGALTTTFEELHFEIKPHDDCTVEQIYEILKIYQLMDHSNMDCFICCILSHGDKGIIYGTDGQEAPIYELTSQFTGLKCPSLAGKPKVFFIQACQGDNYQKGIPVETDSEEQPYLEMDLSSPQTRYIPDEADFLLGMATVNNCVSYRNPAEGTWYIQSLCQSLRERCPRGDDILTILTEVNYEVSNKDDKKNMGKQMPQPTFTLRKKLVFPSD
cysteines in MDA-MB-231 and Ramos cells (Homo sapiens, UniProt P52948), sequence (P52948 whole entry): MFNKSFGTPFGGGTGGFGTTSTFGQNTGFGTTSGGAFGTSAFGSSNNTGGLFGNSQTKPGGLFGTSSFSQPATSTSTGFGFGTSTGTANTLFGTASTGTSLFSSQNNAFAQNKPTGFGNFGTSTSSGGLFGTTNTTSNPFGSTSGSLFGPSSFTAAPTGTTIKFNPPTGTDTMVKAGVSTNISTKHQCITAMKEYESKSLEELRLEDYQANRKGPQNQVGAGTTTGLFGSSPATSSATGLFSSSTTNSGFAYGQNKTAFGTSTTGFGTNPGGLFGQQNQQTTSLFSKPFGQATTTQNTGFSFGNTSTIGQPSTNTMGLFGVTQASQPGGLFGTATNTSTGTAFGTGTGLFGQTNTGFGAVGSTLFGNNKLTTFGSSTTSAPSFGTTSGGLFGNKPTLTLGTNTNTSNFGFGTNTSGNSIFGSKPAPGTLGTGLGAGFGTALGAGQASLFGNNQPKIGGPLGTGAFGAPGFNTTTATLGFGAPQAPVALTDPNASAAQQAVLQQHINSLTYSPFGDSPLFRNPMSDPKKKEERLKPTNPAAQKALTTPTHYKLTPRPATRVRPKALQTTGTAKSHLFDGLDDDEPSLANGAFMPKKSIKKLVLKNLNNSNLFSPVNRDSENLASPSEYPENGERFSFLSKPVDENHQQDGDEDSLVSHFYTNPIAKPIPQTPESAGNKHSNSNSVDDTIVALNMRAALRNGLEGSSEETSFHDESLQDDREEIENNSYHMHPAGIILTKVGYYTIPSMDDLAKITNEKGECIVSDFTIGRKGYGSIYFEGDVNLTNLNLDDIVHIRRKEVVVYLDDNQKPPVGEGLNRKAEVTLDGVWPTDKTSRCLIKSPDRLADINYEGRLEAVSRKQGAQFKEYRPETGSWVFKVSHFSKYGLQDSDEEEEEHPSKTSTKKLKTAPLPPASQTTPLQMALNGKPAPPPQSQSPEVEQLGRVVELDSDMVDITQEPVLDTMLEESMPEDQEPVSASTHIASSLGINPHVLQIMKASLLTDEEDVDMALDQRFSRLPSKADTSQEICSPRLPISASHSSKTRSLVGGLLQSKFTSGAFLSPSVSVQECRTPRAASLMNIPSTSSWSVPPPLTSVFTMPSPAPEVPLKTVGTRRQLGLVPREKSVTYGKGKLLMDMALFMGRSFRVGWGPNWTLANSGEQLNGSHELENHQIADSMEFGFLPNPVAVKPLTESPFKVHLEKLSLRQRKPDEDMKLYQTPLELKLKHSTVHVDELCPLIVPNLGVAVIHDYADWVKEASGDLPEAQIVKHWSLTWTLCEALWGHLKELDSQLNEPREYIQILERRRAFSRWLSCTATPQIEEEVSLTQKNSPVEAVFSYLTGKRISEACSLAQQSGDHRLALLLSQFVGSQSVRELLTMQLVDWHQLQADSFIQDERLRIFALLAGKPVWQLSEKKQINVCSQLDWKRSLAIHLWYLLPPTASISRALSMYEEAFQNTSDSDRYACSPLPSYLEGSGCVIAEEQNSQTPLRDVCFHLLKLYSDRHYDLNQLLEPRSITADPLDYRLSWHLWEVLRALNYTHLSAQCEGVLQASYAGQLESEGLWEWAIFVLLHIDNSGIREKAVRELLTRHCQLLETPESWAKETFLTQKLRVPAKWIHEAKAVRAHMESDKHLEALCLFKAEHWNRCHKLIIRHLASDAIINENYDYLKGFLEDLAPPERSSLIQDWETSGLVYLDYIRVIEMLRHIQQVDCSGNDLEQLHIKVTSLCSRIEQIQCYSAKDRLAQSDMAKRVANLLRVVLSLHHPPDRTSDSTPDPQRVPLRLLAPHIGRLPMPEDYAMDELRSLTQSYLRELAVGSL
cysteines in MDA-MB-231 and Ramos cells (Homo sapiens, UniProt P27707), sequence (P27707 whole entry): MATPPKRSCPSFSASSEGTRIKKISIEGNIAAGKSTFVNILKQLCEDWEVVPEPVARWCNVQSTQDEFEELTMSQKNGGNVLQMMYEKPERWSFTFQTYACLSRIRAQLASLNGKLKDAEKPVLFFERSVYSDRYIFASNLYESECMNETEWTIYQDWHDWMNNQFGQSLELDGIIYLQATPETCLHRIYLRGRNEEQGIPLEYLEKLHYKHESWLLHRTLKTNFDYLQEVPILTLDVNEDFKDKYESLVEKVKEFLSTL
cysteines in MDA-MB-231 and Ramos cells (Homo sapiens, UniProt Q5MNZ6), sequence (Q5MNZ6 whole entry): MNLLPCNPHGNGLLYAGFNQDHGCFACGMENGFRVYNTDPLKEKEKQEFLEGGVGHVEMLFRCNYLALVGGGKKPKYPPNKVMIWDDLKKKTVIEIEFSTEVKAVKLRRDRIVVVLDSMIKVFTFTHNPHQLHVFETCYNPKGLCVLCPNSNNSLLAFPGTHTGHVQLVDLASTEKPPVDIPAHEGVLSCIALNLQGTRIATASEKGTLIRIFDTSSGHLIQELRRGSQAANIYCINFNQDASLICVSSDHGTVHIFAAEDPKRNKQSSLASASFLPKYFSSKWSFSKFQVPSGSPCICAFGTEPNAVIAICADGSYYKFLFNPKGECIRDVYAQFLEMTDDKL
cysteines in MDA-MB-231 and Ramos cells (Homo sapiens, UniProt Q9UNI6), sequence (Q9UNI6 whole entry): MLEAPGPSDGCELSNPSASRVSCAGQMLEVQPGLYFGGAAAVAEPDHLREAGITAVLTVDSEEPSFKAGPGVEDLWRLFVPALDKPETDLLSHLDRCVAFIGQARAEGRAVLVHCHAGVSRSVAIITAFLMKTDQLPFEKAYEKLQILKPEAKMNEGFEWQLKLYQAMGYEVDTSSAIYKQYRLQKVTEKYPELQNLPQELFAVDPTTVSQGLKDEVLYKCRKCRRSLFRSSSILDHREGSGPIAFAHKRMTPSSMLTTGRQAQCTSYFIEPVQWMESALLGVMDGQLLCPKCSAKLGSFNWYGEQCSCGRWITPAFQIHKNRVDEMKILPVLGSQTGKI

SMILES | isoTOP-ABPP ratio P35754_C23 ([1]; 200 μM, insitu, 231) | isoTOP-ABPP ratio Q14790_C360 [4]; 231 | isoTOP-ABPP ratio P27707_C9 ([6]; 200 μM, insitu, 231) | isoTOP-ABPP ratio Q5MNZ6_C63 ([8]; 200 μM, insitu, 231) | isoTOP-ABPP ratio, cysteine P52948_C1312 [2] | isoTOP-ABPP ratio Q9NTX5_C133 ([9]; 200 μM, insitu, 231) | isoTOP-ABPP ratio P27707_C9 ([6]; 200 μM, insitu, ramos) | also measured
C=CC(=O)Nc1cc(F)c(N2CCN(C(=O)OC(C)(C)C)CC2)c(F)c1 [compound 38] | 0.9 | 1.0 | 1.8 |  |  |  |  | isoTOP-ABPP ratio P52948_C1312 [2]: 1.3; isoTOP-ABPP ratio Q9UNI6_C265 [3]: 1.0; isoTOP-ABPP ratio Q96N67_C2125 [5]: 1.5; isoTOP-ABPP ratio O75717_C773 ([7]; 200 μM, insitu, 231): 2.3
O=C(CCl)NC(=O)NC12CC3CC(CC(C3)C1)C2 [compound 12] | 20.0 |  | 1.4 | 20.0 | 20.0 | 1.2 |  | isoTOP-ABPP ratio, cysteine Q9UNI6_C265 [3]: 1.2
C=CC(=O)N(Cc1cccnc1)c1cc(C(F)(F)F)cc(C(F)(F)F)c1 [compound 31] | 0.6 | 0.5 |  |  |  |  | 1.2 | isoTOP-ABPP ratio P35754_C23 ([1]; 200 μM, insitu, ramos): 1.1; isoTOP-ABPP ratio Q96N67_C2125 [5]: 0.8
Cn1cc(S(=O)(=O)N2CCOCC2)cc1C(=O)NC(=O)CCl [compound 11] |  |  |  |  |  |  |  | isoTOP-ABPP ratio Q5MNZ6_C63 ([8]; 100 μM in situ 231): 0.9; isoTOP-ABPP ratio, cysteine Q5JPI3_C308 ([10]; 100 μM in situ 231): 1.0; isoTOP-ABPP ratio P35754_C23 ([1]; 100 μM in situ 231): 20.0; isoTOP-ABPP ratio P27707_C9 ([6]; 100 μM in situ 231): 0.5; isoTOP-ABPP ratio, cysteine O75717_C773 ([7]; 100 μM in situ 231): 1.2; isoTOP-ABPP ratio Q9NTX5_C133 ([9]; 100 μM in situ 231): 1.0
O=C(CCl)NCCc1c[nH]c2ccccc12 [compound 13] |  | 1.2 | 1.0 | 1.1 | 1.2 | 1.1 | 1.3 | isoTOP-ABPP ratio, cysteine Q5JPI3_C308 ([10]; 200 μM, insitu, 231): 1.1; isoTOP-ABPP ratio, cysteine Q5JPI3_C308 ([10]; 200 μM, insitu, ramos): 1.7; isoTOP-ABPP ratio, cysteine Q14137_C404 [11]: 1.1; isoTOP-ABPP ratio, cysteine O75717_C773 ([7]; 200 μM, insitu, 231): 1.1
O=C(CCl)N1CCN(CC(=O)N2CCOCC2)CC1 [compound 29] |  |  |  |  |  |  | 1.2 | isoTOP-ABPP ratio Q5JPI3_C308 ([10]; 200 μM, insitu, ramos): 1.3; isoTOP-ABPP ratio Q14790_C360 ([4]; ramos): 1.6; isoTOP-ABPP ratio Q14137_C404 ([11]; ramos): 1.5
O=C(CCl)NC12CC3CC(CC(C3)C1)C2 [compound 21] |  | 0.9 | 1.3 | 0.8 | 1.1 | 1.1 |  | isoTOP-ABPP ratio, cysteine Q5JPI3_C308 ([10]; 200 μM, insitu, 231): 0.9; isoTOP-ABPP ratio, cysteine Q14137_C404 [11]: 1.1
O=C(CCl)N1CCC(Cc2ccccc2)CC1 [compound 9] |  |  |  |  |  |  |  | isoTOP-ABPP reactivity P27707_C9 DCK ([6]; 200 μM, insitu, 231): 4.9
